Test results: patent publication US8415156B2, “Recombinant laminin-521” (Biolamina AB, priority 2010, dated 2013)

What was measured:
[1] = system: hES cells; assay: Cell survival assay, 24 hours (Example 2); type: cell-based, human; conditions: for survival of hES cells plated from single cell suspension after 24 hours: O3 medium, absence of ROCK inhibitor
Method: Tissue cell culture plates were coated overnight at 4° C. with sterile solutions of the ECM proteins, such as human recombinant LN-521, all at a concentration of 30 μg/ml (5 μg/cm^2). Control plates were coated with Matrigel according to the STEMCELL Technologies' instructions. Prior to use, dishes were pre-warmed in an incubator for one hour after which prewarmed O3 medium was added without additional washing of the dish. After applying a fresh LN-521 solution to a new dish, the remaining LN-521 solution could be used at least once more. All the adhesion, survival, and inhibition of survival experiments were carried out using fresh coating materials.
Briefly, 96-well plates were coated by extracellular matrix proteins as described above and blocked by O3 medium containing bovine serum albumin. The ES cells were plated at cell density of 50,000 cells/cm^2 onto extracellular matrix-coated plates and left to adhere for 1 hour in a cell incubator. After that the plates were washed 3 times with the medium to remove the non-adherent cells, and then the adherent cells were fixed for 20 minutes by 5% glutaraldehyde, stained by 0.1% Crystal Violet. (Kebo Lab, Spanga, Sweden, www.kebolab.se). After one hour and 3 washes with water, Crystal Violet was extracted with 10% acetic acid and quantified by measuring optical density at 570 nm. All the experiments were performed in quadruplicate.
The survival assay was performed as described for the cell adhesion assay above, except that the cells were left in the cell incubator for 24 hours. For inhibition of survival assay, the cells were kept in a medium with function blocking antibodies at the concentrations recommended by the manufacturer or pathway inhibitors at concentrations indicated in the text for 30 minutes, and then plated on the coated dishes. All the experiments were performed in quadruplicate.
Pluripotent hES cells express α1, α5, β1, β2 and γ1 laminin chains. To compare the adhesion and clonal survival of hES cells plated from single cell suspension to different coating substrata, hES cells growing as monolayers on LN-511 or as clusters on a feeder layer were trypsinized into single cell suspension in O3 medium and plated on cell culture dishes coated with Matrigel, LN-111, LN-511, LN-521 or a mixture of LN-511 and LN-521, in the absence or presence of a ROCK inhibitor (Y-27632) and analyzed after 24 hours.

[2] = system: HS181 cells; assay: Single cell survival / cell adhesion, 1 day after plating (Example 1); type: cell-based, human; conditions: for single cell survival / cells remaining attached 24 hours after plating: O3 medium without any additives, completely dissociated HS181 cells
Method: Human ES cells were cultured on r-laminin-521-coated laboratory dishes in chemically defined O3 medium (described in Rodin et al., Nature Biotechnol., vol. 28, pp. 611-615 (2010)) at 37° C. in 5% CO2. Cells were routinely passed once every 10-12 days by exposure to Trypsin-EDTA solution (GIBCO Invitrogen) for 5 minutes at 37° C. They were then gently pipetted to break into single-cell suspension and defined trypsin inhibitor (GIBCO Invitrogen) was added. The cell suspension was centrifuged […], the supernatant discarded, the cell pellet resuspended in prewarmed O3 medium, and cells were then passed through a 40 μm sieve. After that cells were plated on new r-laminin-521-coated dishes at a concentration 30 Kcells/cm^2 (1:25-1:30 split ratio). Cells were fed once a day with fresh medium prewarmed in an incubator for 1 hour, except for the first day after a passage, when only a few drops of fresh medium were added. Control cells of the same line were cultured on Matrigel (BD Biosciences) in O3 medium as described in Rodin et al., Nature Biotechnol., vol. 28, pp. 611-615 (2010). Control cells were passaged in pieces.
Ninety-six-well tissue cell culture plates were coated overnight at 4° C. with sterile solutions of the ECM proteins mouse LN-111 (Invitrogen), human recombinant LN-511, and human recombinant LN-521, all at a concentration of 30 μg/ml (5 μg/cm^2). For control cells, BD Matrigel™ hESC qualified (BD Biosciences) was used according to the manufacturer's instructions.
The assay was performed as described (Extracellular Matrix Protocols, 2000). Briefly, 96-well plates were coated by extracellular matrix proteins as described above and blocked by O3 medium containing bovine serum albumin. The ES cells were plated at a cell density of 600 cell/mm^2 upon extracellular matrix-coated plates and were left to adhere for either 1 hour or 1 day at the cell incubator. Non-adherent cells were washed away, and adherent cells were fixed for 20 min by 5% glutaraldehyde, stained by 0.1% Crystal Violet.

[3] = system: myosin light chain (MLC); assay: Western blot of phosphorylated myosin light chain; type: cell-based, human; conditions: one and six hours after plating
Method: HS181 cells were trypsinized into single cell suspension as described above. For inhibition experiments, the cells were kept in O3 medium with blocking antibodies or pathway inhibitors for 30 minutes and then 450K cells were plated on 35 mm dishes precoated with the appropriate matrix coating. For other experiments, same number of cells was plated directly after trypsinization. […] After two washings in ice-cold PBS, the plates with cells were snap frozen in liquid nitrogen and stored at −80° C. To prepare samples for western blots and ELISA, the plates were slowly thawed and kept on ice with 100-150 μl of lysis buffer (50 mM Tris-HCl, pH7.5, 150 mM NaCl, 0.5% deoxycholate, 0.5% SDS, 1% Triton X-100, 1% Igepal, Complete™ (Roche) and Phospho-Stop™ (Roche)) on top. Then, the cells were scraped, pipetted and sheared through a 27G ¾″ needle. After that, the cell pellets were clarified by centrifugation at 16,100 rcf for 15 minutes at 4° C. For western blots, 4-12% gradient gels were used for SDS electrophoresis and the proteins were transferred to PVDF membranes. The membrane was hybridized with the antibody of interest according to the manufacturer's instructions. Chemoluminescent HRP-substrate from Amersham Biosciences was used for visualization. For the densitometry analysis the films were scanned at 2,400 dpi and analyzed by the Chemilmager5500 program (1D-Multi Line densitometry mode). […]

[4] = system: mouse ES cells; conditions: without LIF or feeder cells; cited from earlier work
[5] = system: human embryonic stem cell; assay: Survival after dissociation into single cell suspension (description); type: cell-based; conditions: O3 medium; 30 Kcells/cm^2; precoated dishes
Text: In other aspects, the present disclosure provides a new material, isolated laminin-521, which permits human embryonic stem cell survival after dissociation into single cell suspension. The stem cells were dissociated into single cell suspension by Trypsin-EDTA treatment, pelleted by centrifugation, resuspended into O3 medium, filtered through a 40 μm sieve, and plated at a density of 30 Kcells/cm^2 on cell culture dishes precoated by either isolated laminin-521, laminin-511, or Matrigel. After one day in culture, the cells plated on Matrigel died, as is known in the art.

[6] = target: Integrin α6β1 (Homo sapiens, UniProt P05556+P23229); conditions: cited from earlier work
Chain of Integrin α6β1 (P23229 24-1130): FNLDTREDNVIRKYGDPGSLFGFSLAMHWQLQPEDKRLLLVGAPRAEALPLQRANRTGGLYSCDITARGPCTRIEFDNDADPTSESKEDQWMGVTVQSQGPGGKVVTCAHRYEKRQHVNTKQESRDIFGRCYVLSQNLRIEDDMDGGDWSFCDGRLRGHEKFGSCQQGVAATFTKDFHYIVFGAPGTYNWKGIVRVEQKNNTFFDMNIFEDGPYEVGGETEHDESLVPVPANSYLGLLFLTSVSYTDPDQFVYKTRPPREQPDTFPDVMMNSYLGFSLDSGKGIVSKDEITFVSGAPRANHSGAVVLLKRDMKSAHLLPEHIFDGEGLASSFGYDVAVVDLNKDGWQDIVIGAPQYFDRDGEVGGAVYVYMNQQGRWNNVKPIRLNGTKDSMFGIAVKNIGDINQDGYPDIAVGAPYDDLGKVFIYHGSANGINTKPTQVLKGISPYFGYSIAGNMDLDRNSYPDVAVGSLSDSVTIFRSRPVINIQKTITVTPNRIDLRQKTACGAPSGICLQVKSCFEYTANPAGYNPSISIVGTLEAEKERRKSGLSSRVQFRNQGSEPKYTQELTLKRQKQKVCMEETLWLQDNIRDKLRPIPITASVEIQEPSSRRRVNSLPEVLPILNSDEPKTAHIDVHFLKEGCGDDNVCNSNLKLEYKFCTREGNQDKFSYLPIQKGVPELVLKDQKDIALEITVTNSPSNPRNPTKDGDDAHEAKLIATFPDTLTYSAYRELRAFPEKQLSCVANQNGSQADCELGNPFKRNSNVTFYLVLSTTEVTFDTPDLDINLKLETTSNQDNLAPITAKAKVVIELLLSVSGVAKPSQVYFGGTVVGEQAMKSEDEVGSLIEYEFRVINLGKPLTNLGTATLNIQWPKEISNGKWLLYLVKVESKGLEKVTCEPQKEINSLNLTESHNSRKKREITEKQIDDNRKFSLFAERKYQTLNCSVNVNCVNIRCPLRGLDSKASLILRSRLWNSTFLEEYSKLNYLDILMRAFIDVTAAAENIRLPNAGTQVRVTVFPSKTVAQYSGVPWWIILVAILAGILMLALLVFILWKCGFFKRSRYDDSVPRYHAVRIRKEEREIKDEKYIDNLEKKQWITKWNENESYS
Chain of Integrin α6β1 (P05556 21-798): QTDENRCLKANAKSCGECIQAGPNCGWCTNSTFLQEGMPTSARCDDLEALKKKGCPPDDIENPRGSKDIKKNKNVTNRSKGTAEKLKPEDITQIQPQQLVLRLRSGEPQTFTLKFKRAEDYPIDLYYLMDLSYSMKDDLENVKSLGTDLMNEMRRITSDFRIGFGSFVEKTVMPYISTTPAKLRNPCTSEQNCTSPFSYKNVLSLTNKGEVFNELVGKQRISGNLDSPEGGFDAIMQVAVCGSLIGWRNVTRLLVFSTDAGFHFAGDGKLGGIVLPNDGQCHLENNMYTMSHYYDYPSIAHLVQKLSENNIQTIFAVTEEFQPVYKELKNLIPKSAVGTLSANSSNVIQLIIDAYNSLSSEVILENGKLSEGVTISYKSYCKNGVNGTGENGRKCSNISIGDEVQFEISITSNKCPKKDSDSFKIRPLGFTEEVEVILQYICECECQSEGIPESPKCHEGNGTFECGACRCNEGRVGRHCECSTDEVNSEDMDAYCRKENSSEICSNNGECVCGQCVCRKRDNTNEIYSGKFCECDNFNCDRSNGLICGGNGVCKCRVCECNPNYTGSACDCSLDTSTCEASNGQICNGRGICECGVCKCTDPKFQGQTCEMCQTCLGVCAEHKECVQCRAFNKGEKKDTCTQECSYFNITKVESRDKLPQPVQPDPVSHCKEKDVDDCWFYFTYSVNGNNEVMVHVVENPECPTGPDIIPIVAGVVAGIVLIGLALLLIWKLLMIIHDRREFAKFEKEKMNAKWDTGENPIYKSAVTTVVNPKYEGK

[7] = system: human ES cells; conditions: cited from earlier work
[8] = system: hES cells; assay: Clonal survival of individualized hES cells (Example 4); type: cell-based, human; conditions: mTeSR1
Method: hES cells were plated in mTeSR1 medium on different coatings at a density of 250 cells per cm^2 and monitored after 5 days in culture using an alkaline phosphatase staining kit.
Next, combinations of laminin-521 and E-Cadherin were tested to determine whether the combinations could sustain clonal survival of the cells. Fixed amounts of laminin-521 were used for the cell culture dish coating in combination with titrated E-Cadherin.
Additional tests were performed to test the effects of various modifications to the mTeSR1 medium. A mixture of E-Cadherin to laminin-521 in a ratio of about 1:10 w/w was used to coat the plates. […] Time-lapse photography of the cells confirmed that laminin-521/E-Cadherin coatings facilitated cell survival through proliferation of the single cells, not through the aggregation of different cells.

C[C@@H](N)[C@H]1CC[C@H](C(=O)Nc2ccncc2)CC1 [Y-27632, reference compound]
cell shape of cells growing on LN-521 24 hours after plating ([1]; LN-521 row: absence of ROCK inhibitor, Y-27632 row: presence of ROCK inhibitor): spindle or crescent like shape | survival of hES cells after 24 hours in the presence of ROCK inhibitor ([1]; all coating surfaces): survived on all surfaces | cells remaining attached after one day with ROCK inhibitor ([2]; O3 medium treated with Y-27632, 5 coatings): remained attached on all 5 coatings

LN-111: mouse laminin-111 (Invitrogen), indicated as LN-111 if not otherwise stated
survival of hES cells plated from single cell suspension after 24 hours [1]: did not survive | single cell survival / cells remaining attached 24 hours after plating [2]: almost no cells remained attached

LN-121: human recombinant laminin with α1, β2 and γ1 chains produced in HEK293 cells
survival of hES cells plated from single cell suspension after 24 hours [1]: failed to survive

LN-511: human recombinant laminin-511 coating
phosphorylation of MLC compared with cells on Matrigel and LN-111 [3]: even higher | time of supported self-renewal of mouse ES cells [4]: over 5 months | survival of hES cells plated from single cell suspension after one day in culture [5]: in most cases on laminin-511 survived and started to proliferate | survival of hES cells plated from single cell suspension after 24 hours [1]: did so as single cells | binding affinity of integrin α6β1 [6]: higher than that for LN-111 | time human ES cells maintain pluripotency and can generate teratomas in SCID mice [7]: over 3 months | single cell survival / cells remaining attached 24 hours after plating [2]: at a less extent

albumin: albumin of the mTeSR1 medium, concentration increased 2×
effect of 2× increase in albumin concentration on clonal survival ([8]; laminin-521/E-Cadherin matrix): significantly improved clonal survival

human recombinant LN-111: human recombinant laminin with α1, β1 and γ1 chains produced in HEK293 cells
survival of hES cells plated from single cell suspension after 24 hours [1]: failed to survive

B1: E-Cadherin: epithelial-cadherin, most abundant cadherin isoform on the human ES cell surface (protein, UniProt P12830 155-882, looked up)
Cadherin-1: DWVIPPISCPENEKGPFPKNLVQIKSNKDKEGKVFYSITGQGADTPPVGVFIIERETGWLKVTEPLDRERIATYTLFSHAVSSNGNAVEDPMEILITVTDQNDNKPEFTQEVFKGSVMEGALPGTSVMEVTATDADDDVNTYNAAIAYTILSQDPELPDKNMFTINRNTGVISVVTTGLDRESFPTYTLVVQAADLQGEGLSTTATAVITVTDTNDNPPIFNPTTYKGQVPENEANVVITTLKVTDADAPNTPAWEAVYTILNDDGGQFVVTTNPVNNDGILKTAKGLDFEAKQQYILHVAVTNVVPFEVSLTTSTATVTVDVLDVNEAPIFVPPEKRVEVSEDFGVGQEITSYTAQEPDTFMEQKITYRIWRDTANWLEINPDTGAISTRAELDREDFEHVKNSTYTALIIATDNGSPVATGTGTLLLILSDVNDNAPIPEPRTIFFCERNPKPQVINIIDADLPPNTSPFTAELTHGASANWTIQYNDPTQESIILKPKMALEVGDYKINLKLMDNQNKDQVTTLEVSVCDCEGAAGVCRKAQPVEAGLQIPAILGILGGILALLILILLLLLFLRRRAVVKEPLLPPEDDTRDNVYYYDEEGGGEEDQDFDLSQLHRGLDARPEVTRNDVAPTLMSVPRYLPRPANPDEIGNFIDENLKAADTDPTAPPYDSLLVFDYEGSGSEAASLSSLNSSESDKDQDYDYLNEWGNRFKKLADMYGGGEDD
clonal survival of individualized hES cells ([8]; 250 cells per cm^2, 5 days, alkaline phosphatase staining): Neither laminin-521 nor E-Cadherin alone permitted efficient clonal survival
